What was measured:
[1] = tested on: immortalized human keratinocytes (HaCaT); assay: MTT cell viability assay, HaCaT; format: cell-based; details: 48 h incubation
Source text: (§1) The immortalized human keratinocytes (HaCaT) were from Innoprot.

[2] = tested on: A431 cells; assay: Western blot of pro-caspases 9 and 3, A431; format: cell-based, human; details: A431, 2.3 μM, 48 h
Method: (§2) In particular, SVT2 and A431 were incubated for 48 h with 1-Me,Me and 1-Oct,Me, using the IC50 value concentrations. At the end of incubation, uptake and cell death mechanisms were evaluated. […] Finally, apoptosis was investigated by Western blot analyses using specific antibodies against pro-caspases 9 and 3.
The SVT2 were seeded on six-well plates at a density of 2.5 × 10^5 cells/well, whereas A431 was seeded at a density of 3 × 10^5 cells/well. After 24 h, cells were treated with 9.8 μM of 1-Me,Me or 2.3 μM 1-Oct,Me. After 48 h of incubation, Western blot analyses were performed by using pro-caspase 9 (Cell Signaling Technology, Danvers, MA, USA) and pro-caspase 3 (Abcam, Cambridge, MA, USA) antibodies, as reported by Del Giudice et al. Protein intensity levels were normalized using β-actin (Sigma-Aldrich, St. Louis, MO, USA). The chemiluminescence detection system was purchased from Bio-Rad (Hercules, CA, USA).

[3] = tested on: A431 cells; assay: Cellular Pt uptake by ICP-MS, A431; format: cell-based, human; details: A431, 2.3 μM (IC50), 48 h, mean ± S.E.
Method: as §2
To study the uptake of the complexes, SVT2 and A431 were incubated for 48 h in the presence of 1-Me,Me and 1-Oct,Me, respectively, at their IC50 concentrations. At the end of incubation, Pt determination was performed by inductively coupled plasma mass spectrometry (ICP-MS, Aurora M90; Bruker, Ettlingen/Leipzig, Germany) in the “Normal Sensitivity” mode. Calibration curves for the quantification of Pt ranged from 0.1 to 100 μg/L and were constructed daily by the analysis of the standard solutions prepared immediately before analysis. All standards used for analysis were prepared in HNO3 solution (2%, v/v). The internal standards were ^89Y and ^115In in both the calibration curve and sample analyses. The linearity was acceptable with an R^2 value greater than 0.9996. The treatment of the cells involved a wet digestion: after centrifugation, cell samples were wet digested with 1 mL of ultrapure HNO3 (67–69%, v/v). The mixture was gently boiled over a water bath (90 °C) for 3 h until a clear solution was obtained. […]

[4] = tested on: murine fibroblast BALB/c-3T3 transformed with the SV40 virus (SVT2); assay: MTT cell viability assay, SVT2; format: cell-based; details: for IC50: 48 h incubation, MTT; for SI (selectivity index): ratio IC50 BALB-c/3T3 / IC50 SVT2
Source text: as §1

[5] = tested on: immortalized murine fibroblasts (BALB/c-3T3); details: read-out: IC50 BALB-c/3T3; 48 h incubation, MTT
Method: To evaluate their biological activity, the effects of the four complexes on cell viability were evaluated in eukaryotic cell models. For this purpose, experiments were performed on two cancer cell lines, i.e., human epidermoid carcinoma cells (A431) and murine fibroblast BALB/c-3T3 transformed with the SV40 virus (SVT2), and on two non-cancer cell lines, i.e., immortalized human keratinocytes (HaCaT) and immortalized murine fibroblasts (BALB/c-3T3). Cells were incubated with increasing concentrations of 1,Me-Me, 1,Oct-Me, 1,Me-Oct, and 1,Oct-Oct (from 0.1 to 50 μM). After 48 h of incubation, cytotoxicity was determined by MTT assay and cell survival was expressed as the percentage of viable cells in the presence of each complex compared with that of the untreated cells (Figure S19).
The immortalized human keratinocytes (HaCaT) were from Innoprot. Human The A431 epidermoid carcinoma, murine BALB/c-3T3, and SVT2 fibroblasts were from ATCC. Cells were cultured in Dulbecco’s modified Eagle’s medium (DMEM) (Sigma-Aldrich, St. Louis, MO, USA), supplemented with 10% foetal bovine serum (HyClone), 2 mM L-glutamine, and antibiotics, all from Sigma-Aldrich, under a 5% CO2-humidified atmosphere at 37 °C. To test the effects of the complexes on cell viability, cells were seeded at a density of 2.5 × 10^3 cells per well in 96-well plates. After 24 h, cells were incubated with increasing concentrations (from 0.1 to 50 μM) of the four complexes. After 48 h, cell viability was assessed by the MTT assay, as previously reported in [43]. Cell viability was expressed as the percentage of viable cells in the presence of the Pt complexes compared to the controls, represented by untreated cells and cells supplemented with identical volumes of DMSO. Each sample was tested in three independent analyses, each carried out in triplicate.

[6] = Octanol/water partition coefficient, shake-flask method; format: physicochemical; details: n-octanol/water, UV-vis
Method: The partition coefficients in octanol/water (log Po/w) were measured using the shake-flask method, by calculating the equilibrium concentrations through UV spectra (Table 1).
Partition coefficients for the platinum complexes were determined in triplicate in an n-octanol/water system, with different ratios (1:1, 1:2, 2:1). Each complex was dissolved in n-octanol at the concentrations 16.7, 12.5, or 10 μM and subsequently, an appropriate volume of water was added. The mixtures were shaken mechanically for 1 h to ensure the distribution between the two solvent phases. The samples were then centrifuged (13,000 rpm, 10 min). Afterwards, the platinum concentration was determined in the octanol phases by UV–vis spectrophotometry, after collecting a calibration line for each complex. Results are expressed as the logarithm of the partition coefficient of octanol/water (log Po/w), which is the logarithm of the concentration of platinum in the n-octanol divided by its concentration in the aqueous layer.

[7] = tested on: human epidermoid carcinoma cells (A431); assay: MTT cell viability assay, A431; format: cell-based; details: for IC50: 48 h incubation, MTT; for SI (selectivity index): ratio IC50 HaCaT / IC50 A431
Source text: as §1

Row | Substance | IC50 [1] | pro-caspases 9 and 3 levels [2] | Pt uptake [3] | IC50 [4] | SI (selectivity index) [4] | IC50 [5] | Log Po/w [6] | IC50 [7] | SI (selectivity index) [7]
1 | Platinum(1+), (2,9-dimethyl-1,10-phenanthroline- N1,N10)(η2-ethene)octyl[1,3-dihydro-1,3-dimethyl-4-[1-[2,3,4,6-tetrakis-O-(acetyl)-β-D-glucopyranosyl]-1H-1,2,3-triazol-4-yl]-2H-imidazol-2-ylidene], 1,1,1-trifluoromethanesulfonate [1-Oct,Me] | 6.4 ± 1 µM | significant decrease in pro-caspases 9 and 3 levels | 14.3 ± 1.3 Pt ng/10^6 cells | 8.6 ± 0.6 µM | 0.83 | 7.1 ± 0.1 µM | 1.14 | 2.3 ± 0.1 µM | 2.78
2 | Platinum(1+), (2,9-dimethyl-1,10-phenanthroline- N1,N10)(η2-ethene)octyl[1,3-dihydro-1-methyl-3-octyl-4-[1-[2,3,4,6-tetrakis-O-(acetyl)-β-D-glucopyranosyl]-1H-1,2,3-triazol-4-yl]-2H-imidazol-2-ylidene], 1,1,1-trifluoromethanesulfonate [1-Oct,Oct] | 6.4 ± 0.8 µM |  |  | 4.5 ± 1.3 µM | 1.62 | 7.3 ± 0.7 µM | 0.80 | 5 ± 0.6 µM | 1.28
3 | Platinum(1+), (2,9-dimethyl-1,10-phenanthroline- N1,N10)(η2-ethene)methyl[1,3-dihydro-1-methyl-3-octyl-4-[1-[2,3,4,6-tetrakis-O-(acetyl)-β-D-glucopyranosyl]-1H-1,2,3-triazol-4-yl]-2H-imidazol-2-ylidene], 1,1,1-trifluoromethanesulfonate [1-Me,Oct] | 8 ± 0.1 µM |  |  | 7.6 ± 1.1 µM | 1.09 | 8.3 ± 0.4 µM | 0.74 | 7.3 ± 0.4 µM | 1.1

Source: PMC9916762, “Impact of Hydrophobic Chains in Five-Coordinate Glucoconjugate Pt(II) Anticancer Agents” (International Journal of Molecular Sciences, 2023)
